Common to all, as to assay type: biochemical
One assay concerns the target T1, Human PI3K alpha (Homo sapiens, UniProt P42336).
T1 construct: His (N); host or cells: SF9 insect cells (baculovirus)
In words: Human PI3K alpha enzyme assay (HTRF). The following applies: for p110 alpha Percent Inhibition / inhibition at 1.1 µM: concentration not given, b1387 states 1.1 μM for PI3K α and β; for inhibition at 1.1 µM: read-out: p110 alpha Percent Inhibition; for IC50: read-out: PI3Kalpha IC50. A general note: Time-resolved FRET reads energy transfer from a long-lived donor to a nearby acceptor.

The next assay has as its target T2, Human PI3K beta (Homo sapiens, UniProt P42338).
T2 construct: His (N); host or cells: SF9 insect cells (baculovirus)
The experiment in a line: Human PI3K beta enzyme assay (HTRF). The following applies: for p110 beta Percent Inhibition / inhibition at 1.1 µM: concentration not given, b1387 states 1.1 μM for PI3K α and β; for inhibition at 1.1 µM: read-out: p110 beta Percent Inhibition; for IC50: read-out: PI3 Kbeta IC50. An outline of the steps: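 Compounds were mixed with 25 uM ATP, then with 3.5 uM di-C8 PI(4,5)P2 and His-tagged PI3K isoform (β 5.25 nM, δ 0.75 nM, γ 5 nM) at pH 7.00. After 30 min at room temperature, EDTA stopped the reaction and PIP3 was measured by HTRF over 1 h.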

The next assay concerns the target T3, Human PI3K delta (Homo sapiens, UniProt O00329).
T3 construct: His (N); host or cells: SF9 insect cells (baculovirus)
The experiment in a line: Human PI3K delta enzyme assay (HTRF). The following applies: concentration not given, b1389 states 1.0 μM for PI3K δ and γ; for inhibition at 1 µM: read-out: p110 delta Percent Inhibition. From the text: (§1) The catalytic subunits of PI3Ks are cloned into either pDEST8(p110 alpha) or pDEST10(p110beta, p110delta, and p110gamma) as N-terminal His tagged fusion proteins using the Gateway system (Invitrogen, catalog#11804-010 for pDEST8 and 11806-015 for pDEST10). The sequences are verified before recombinant protein expression using the Baculovirus Expression System with Gateway® Technology. The accession numbers for the subunits are as follows: • p110 alpha (GB:U79143) • p110beta (GB: S67334) • p110delta (GB: U86453) • p110gamma (GB: X83368) • The regulatory subunits of PI3Ks are cloned into pDEST8 as un-tagged protein using the Gateway system (Catalog#11804-010). The sequences are verified before recombinant protein expression using the Baculovirus Expression System with Gateway® Technology. The accession numbers for the subunits are as following: • p85 alpha (GB: BC030815) • p101(GB: AB028925) • VPS34 (accession number GB:BC033004) is cloned into pDEST20—Thombin as N-terminal GST tagged fusion proteins using the Gateway system (Invitrogen, catalog#11804-013). The sequences are verified before recombinant protein expression using the Baculovirus Expression System with Gateway® Technology.
(§2) For expression of the p110 complexes, the p85 (MOI of 4) is co-infected with p110 alpha, beta, and delta respectively (1MOI) in SF9 cells and harvested at 60 hours post co-infection. P110 gamma was infected at 1 MOI and harvested at 60 hours post infection.
(§3) For purification, PI3Ks are purified by Ni-NTA Agarose (Qiagen #30250) followed by Mono Q 10/100 GL (Ge Healthcare #17-5167-01). VPS34 is purified by Glutathione Sepharose 4 Fast Flow (GE Healthcare #17-5132-03) followed by HiTrap Q (GE Healthcare #17-1153-01).
(§4) 0.5 uL compounds in DMSO are added to wells of a 384 well microtitre plate (Corning 3575). At room temperature: 10 ul PI3K reaction buffer (50 mM Hepes, 5 mM DTT, 150 mM NaCl, 10 mM beta-glycerophosphate, 10 mM MgCl2, 0.25 mM sodium cholate and 0.001% CHAPS, pH 7.00) containing ATP (25 uM, Promega) is added followed immediately by 10 ul PI3K reaction buffer containing di-C8 P1(4,5)P2 (3.5 uM, CellSignals) and PI3Kalpha (0.4875 nM, Millennium Protein Sciences Group) and the mixture is incubated with shaking at room temperature for 30 minutes. Then 5 ul PI3K stop mix (50 mM Hepes, 5 mM DTT, 150 mM NaCl, 0.01% Tween-20, 15 mM EDTA and 25 nM biotin-PI(3,4,5)P3 (Echelon) is added to quench the reaction followed immediately by addition of 5 ul HTRF detection mix (50 mM Hepes, 5 mM DTT, 150 mM NaCl, 0.01% Tween-20, 40 mM KF, 1.0 nM GST:GRP-1 PH domain (Millennium Protein Sciences Group), 15 nM Streptavidin-XL (CisBio) and 0.375 nM anti-GST Eu++ antibody (CisBio) at pH 7.00). The plates are then incubated for 1 hour at room temperature with shaking and then read on a BMG PheraStar Plus reader.
(§5) 2) Human PI3K beta, delta and gamma isoforms are tested using the procedure described for PI3K alpha above but with the following changes: PI3K beta (5.25 nM), PI3K delta (0.75 nM) and PI3K gamma (5 nM). All isoforms supplied by Millennium Protein Science Group.
(§6) For the assay methods described above, test compound percent inhibition, at various concentrations, is calculated relative to control (DMSO and EDTA) treated samples. Compound concentration versus percent inhibition curves are fitted to generate IC50 values. One skilled in the art will appreciate that the values generated either as percentage inhibition at a single concentration or IC50 values are subject to experimental variation.

In another assay the target is T4, Human PI3K gamma (Homo sapiens, UniProt P48736).
T4 construct: His (N); host or cells: SF9 insect cells (baculovirus)
T4 sequence (P48736 whole entry): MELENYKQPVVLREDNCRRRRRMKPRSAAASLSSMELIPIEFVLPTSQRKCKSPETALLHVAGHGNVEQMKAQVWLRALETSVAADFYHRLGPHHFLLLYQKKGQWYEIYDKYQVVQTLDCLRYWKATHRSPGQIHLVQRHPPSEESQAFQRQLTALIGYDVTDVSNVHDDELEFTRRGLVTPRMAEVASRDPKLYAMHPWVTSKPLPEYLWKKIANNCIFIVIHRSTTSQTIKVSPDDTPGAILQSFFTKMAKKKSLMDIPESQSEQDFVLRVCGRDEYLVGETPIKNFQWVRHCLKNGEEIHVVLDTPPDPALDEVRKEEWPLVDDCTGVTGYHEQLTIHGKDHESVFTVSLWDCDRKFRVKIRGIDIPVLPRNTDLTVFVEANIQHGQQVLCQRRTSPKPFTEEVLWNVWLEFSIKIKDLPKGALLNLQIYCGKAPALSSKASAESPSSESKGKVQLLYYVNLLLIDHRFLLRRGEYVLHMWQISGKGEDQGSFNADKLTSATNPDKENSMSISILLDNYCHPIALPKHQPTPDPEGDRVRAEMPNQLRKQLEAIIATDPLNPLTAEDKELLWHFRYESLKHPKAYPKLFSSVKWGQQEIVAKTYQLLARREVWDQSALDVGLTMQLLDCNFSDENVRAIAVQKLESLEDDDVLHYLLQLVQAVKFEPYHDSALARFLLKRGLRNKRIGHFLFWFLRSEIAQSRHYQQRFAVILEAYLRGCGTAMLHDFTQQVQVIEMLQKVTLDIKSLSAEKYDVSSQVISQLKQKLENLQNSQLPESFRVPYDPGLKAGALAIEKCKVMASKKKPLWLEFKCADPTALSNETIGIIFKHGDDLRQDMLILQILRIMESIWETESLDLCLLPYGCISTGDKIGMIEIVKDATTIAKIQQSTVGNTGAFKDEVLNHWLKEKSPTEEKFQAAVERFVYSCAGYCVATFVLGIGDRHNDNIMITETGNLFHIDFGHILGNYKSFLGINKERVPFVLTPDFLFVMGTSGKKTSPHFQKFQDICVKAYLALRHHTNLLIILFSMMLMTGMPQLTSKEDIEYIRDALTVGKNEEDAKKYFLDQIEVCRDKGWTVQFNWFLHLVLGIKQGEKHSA
The experiment in a line: Human PI3K gamma enzyme assay (HTRF). The following applies: concentration not given, b1389 states 1.0 μM for PI3K δ and γ; for inhibition at 1 µM: read-out: p110 gamma Percent Inhibition.
From the text: as §1, §2, §3, §4, §5, §6

Results on 28 compounds are retold here after patent US8796268B2, “Heteroaryls and uses thereof” (Millennium Pharmaceuticals, Inc., priority 2010, dated 2014).

Each structure is given as a SMILES string.

T1 sequence (P42336 whole entry): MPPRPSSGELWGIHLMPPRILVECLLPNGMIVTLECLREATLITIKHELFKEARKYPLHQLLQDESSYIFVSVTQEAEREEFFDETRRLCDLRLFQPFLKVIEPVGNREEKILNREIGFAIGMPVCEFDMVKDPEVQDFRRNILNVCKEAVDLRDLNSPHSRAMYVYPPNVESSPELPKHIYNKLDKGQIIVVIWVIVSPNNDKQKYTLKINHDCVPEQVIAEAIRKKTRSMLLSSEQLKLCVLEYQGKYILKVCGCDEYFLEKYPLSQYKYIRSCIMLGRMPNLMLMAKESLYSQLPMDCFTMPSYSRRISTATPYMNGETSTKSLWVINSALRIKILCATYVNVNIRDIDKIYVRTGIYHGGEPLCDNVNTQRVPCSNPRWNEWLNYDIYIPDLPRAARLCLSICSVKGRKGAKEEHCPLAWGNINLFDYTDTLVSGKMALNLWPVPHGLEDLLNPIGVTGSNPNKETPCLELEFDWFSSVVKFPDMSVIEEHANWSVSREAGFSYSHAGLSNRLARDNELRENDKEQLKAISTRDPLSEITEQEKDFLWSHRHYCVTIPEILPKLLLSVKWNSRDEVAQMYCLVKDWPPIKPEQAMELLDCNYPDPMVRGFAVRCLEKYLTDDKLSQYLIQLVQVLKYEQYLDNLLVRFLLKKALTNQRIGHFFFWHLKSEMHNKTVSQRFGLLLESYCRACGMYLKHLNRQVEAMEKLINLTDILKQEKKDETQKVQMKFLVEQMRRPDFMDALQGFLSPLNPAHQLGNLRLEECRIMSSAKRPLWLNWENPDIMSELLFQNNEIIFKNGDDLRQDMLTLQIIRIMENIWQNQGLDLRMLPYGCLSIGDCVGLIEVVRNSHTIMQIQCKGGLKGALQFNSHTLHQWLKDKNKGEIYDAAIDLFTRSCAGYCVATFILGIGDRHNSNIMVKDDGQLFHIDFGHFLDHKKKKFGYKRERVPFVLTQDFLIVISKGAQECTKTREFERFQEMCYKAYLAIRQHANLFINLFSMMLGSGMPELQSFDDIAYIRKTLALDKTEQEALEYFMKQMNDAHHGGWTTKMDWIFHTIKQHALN
T1 sequence (P27986 whole entry partner): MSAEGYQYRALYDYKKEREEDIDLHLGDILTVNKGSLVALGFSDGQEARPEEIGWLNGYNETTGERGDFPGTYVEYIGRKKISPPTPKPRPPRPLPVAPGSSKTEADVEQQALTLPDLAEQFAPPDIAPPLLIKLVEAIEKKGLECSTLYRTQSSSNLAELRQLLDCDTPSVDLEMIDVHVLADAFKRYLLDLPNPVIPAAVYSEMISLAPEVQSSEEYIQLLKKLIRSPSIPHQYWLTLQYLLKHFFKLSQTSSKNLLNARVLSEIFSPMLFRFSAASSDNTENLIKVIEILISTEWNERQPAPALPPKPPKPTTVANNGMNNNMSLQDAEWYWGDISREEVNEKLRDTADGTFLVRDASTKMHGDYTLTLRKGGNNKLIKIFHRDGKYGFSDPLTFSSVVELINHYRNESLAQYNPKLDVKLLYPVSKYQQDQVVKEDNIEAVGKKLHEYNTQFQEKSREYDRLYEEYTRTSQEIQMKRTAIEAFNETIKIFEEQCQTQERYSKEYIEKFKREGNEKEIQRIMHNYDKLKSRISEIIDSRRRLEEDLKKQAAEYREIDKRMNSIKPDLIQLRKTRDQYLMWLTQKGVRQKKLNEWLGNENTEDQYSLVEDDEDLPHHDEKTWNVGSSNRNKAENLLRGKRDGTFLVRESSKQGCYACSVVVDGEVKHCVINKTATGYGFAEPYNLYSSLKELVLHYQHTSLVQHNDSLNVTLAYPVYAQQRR
T3 sequence (O00329 whole entry): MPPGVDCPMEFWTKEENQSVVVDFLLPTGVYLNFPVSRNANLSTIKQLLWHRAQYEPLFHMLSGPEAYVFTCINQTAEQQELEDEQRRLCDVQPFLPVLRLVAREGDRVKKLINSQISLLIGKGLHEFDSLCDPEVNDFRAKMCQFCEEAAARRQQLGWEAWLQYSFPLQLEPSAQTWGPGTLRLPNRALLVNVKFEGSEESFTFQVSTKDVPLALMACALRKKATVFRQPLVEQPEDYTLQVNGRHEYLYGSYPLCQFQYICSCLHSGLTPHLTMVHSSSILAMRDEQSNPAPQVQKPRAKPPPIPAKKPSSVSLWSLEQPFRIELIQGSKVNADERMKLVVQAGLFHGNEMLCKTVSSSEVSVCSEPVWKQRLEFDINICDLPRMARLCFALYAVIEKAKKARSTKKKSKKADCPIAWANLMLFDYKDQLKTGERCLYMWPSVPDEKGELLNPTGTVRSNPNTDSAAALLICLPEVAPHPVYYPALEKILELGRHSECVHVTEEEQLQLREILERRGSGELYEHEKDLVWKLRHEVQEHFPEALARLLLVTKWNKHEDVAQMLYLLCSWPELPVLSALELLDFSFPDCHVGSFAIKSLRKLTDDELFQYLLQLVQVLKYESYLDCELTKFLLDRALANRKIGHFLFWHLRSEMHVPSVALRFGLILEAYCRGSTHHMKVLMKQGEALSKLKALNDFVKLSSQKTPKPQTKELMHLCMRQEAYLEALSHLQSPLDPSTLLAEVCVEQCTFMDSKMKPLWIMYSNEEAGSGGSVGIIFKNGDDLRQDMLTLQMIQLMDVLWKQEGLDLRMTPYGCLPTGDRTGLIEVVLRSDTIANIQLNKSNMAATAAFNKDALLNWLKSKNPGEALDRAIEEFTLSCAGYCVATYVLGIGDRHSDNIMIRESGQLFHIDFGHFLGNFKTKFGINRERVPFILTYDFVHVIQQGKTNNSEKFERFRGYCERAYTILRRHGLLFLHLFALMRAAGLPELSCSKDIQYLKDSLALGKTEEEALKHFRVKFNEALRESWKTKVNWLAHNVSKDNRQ
T3 sequence (P27986 whole entry partner): as the sequence (P27986 whole entry partner) above
T2 sequence (P42338 whole entry): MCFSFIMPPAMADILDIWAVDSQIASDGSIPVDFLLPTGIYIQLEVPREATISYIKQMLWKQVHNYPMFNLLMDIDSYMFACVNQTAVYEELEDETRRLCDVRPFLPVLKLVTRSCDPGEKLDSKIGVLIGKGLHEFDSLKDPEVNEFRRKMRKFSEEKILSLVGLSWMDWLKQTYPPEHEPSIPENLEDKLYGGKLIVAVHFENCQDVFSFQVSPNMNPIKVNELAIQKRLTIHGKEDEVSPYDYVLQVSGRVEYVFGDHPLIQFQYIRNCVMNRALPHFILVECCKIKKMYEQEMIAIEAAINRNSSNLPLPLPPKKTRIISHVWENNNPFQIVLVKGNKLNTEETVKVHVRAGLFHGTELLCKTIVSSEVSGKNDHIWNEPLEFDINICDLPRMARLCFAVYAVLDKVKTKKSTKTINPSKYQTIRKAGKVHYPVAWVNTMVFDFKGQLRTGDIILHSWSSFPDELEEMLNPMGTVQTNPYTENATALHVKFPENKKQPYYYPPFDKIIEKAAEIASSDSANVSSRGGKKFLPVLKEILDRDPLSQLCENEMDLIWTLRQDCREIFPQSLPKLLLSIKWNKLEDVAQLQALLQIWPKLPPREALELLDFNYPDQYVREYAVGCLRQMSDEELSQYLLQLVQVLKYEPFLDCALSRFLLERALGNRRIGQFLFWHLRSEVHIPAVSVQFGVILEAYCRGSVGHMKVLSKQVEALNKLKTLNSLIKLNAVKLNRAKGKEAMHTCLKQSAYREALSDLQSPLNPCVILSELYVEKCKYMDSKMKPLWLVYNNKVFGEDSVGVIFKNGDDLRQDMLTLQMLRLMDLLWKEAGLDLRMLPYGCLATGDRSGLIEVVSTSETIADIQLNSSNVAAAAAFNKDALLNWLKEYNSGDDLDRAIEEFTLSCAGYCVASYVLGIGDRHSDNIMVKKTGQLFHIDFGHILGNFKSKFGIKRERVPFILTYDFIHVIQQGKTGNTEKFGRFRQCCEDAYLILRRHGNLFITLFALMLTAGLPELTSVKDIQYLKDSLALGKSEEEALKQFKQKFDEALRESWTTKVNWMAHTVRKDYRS
T2 sequence (P27986 whole entry partner): as the sequence (P27986 whole entry partner) above

Turning to `N#Cc1c(N2CCOCC2)sc(C(=O)O)c1C(F)c1ccc2ccccc2c1` (centres unmarked) [Compound 364], the “p110 alpha Percent Inhibition” value on Human PI3K alpha is 88%. Moreover, the “p110 beta Percent Inhibition” value on Human PI3K beta worked out at 109%. The “p110 delta Percent Inhibition” value on Human PI3K delta is 101%. Further, the “p110 gamma Percent Inhibition” value at Human PI3K gamma is reported as 56%.

As for `CC(=O)Nc1cc(-c2cc(C(c3ccc(Cl)cc3)n3ccnc3)c(-c3nnc[nH]3)s2)ccn1` (centres unmarked) [Compound 167], the figures for the inhibition at 1.1 µM on Human PI3K alpha and on Human PI3K beta were 105% and 103%, respectively. Further, the inhibition at 1 µM on Human PI3K delta amounted to 110%; at Human PI3K gamma, 26%.

Consider `O=C(O)c1sc(N2CCOCC2)nc1Cc1cc2ccccc2o1` [Compound 341], for which the inhibition at 1.1 µM at Human PI3K alpha came out at 30%; on Human PI3K beta, 110%. The results for the inhibition at 1 µM on Human PI3K delta and on Human PI3K gamma were 98% and 30%, respectively.

Turning to `N#Cc1c(-c2ccncc2)sc(-c2nnc[nH]2)c1Cc1ccc2ccccc2c1` [Compound 148], the inhibition at 1.1 µM on Human PI3K alpha is 41%; on Human PI3K beta, 98%. The inhibition at 1 µM is 69% on Human PI3K delta and 34% on Human PI3K gamma.

In the case of `N#Cc1c(N2CCOC(CO)C2)sc(C(=O)O)c1Cc1ccc2ccccc2c1` (centres unmarked) [Compound 297, 4-cyano-5-[2-(hydroxymethyl)morpholin-4-yl]-3-(2-naphthylmethyl)thiophene-2-carboxylic acid], the figures for the inhibition at 1.1 µM at Human PI3K alpha and at Human PI3K beta were 26% and 104%, respectively. The inhibition at 1 µM turned out to be 77% at Human PI3K delta and 33% on Human PI3K gamma.

Consider `CC(c1ccc2cc(F)ccc2c1)c1c(C(=O)O)sc(N2CCOCC2)c1C#N` (centres unmarked) [Compound 326], for which, at Human PI3K alpha, the “p110 alpha Percent Inhibition” value is 79%. In addition, the inhibition at 1.1 µM on Human PI3K beta turned out to be 108%. Also, the inhibition at 1 µM came out at 96% on Human PI3K delta and 56% at Human PI3K gamma.

Regarding `CC(=O)Nc1cc(-c2cc(C(NCC3CCNC3)c3ccc(Cl)cc3)c(-c3nnc[nH]3)s2)ccn1` (centres unmarked) [Compound 234], the inhibition at 1.1 µM came out at 60% at Human PI3K alpha and 100% at Human PI3K beta. Also, the inhibition at 1 µM on Human PI3K delta came out at 104%; on Human PI3K gamma, 10%.

Consider `CN(C)C(c1ccc(Cl)c(Cl)c1)c1c(C(=O)O)sc(N2CCOCC2)c1C#N` (centres unmarked) [Compound 362, 4-cyano-3-[(3,4-dichlorophenyl)(dimethylamino)methyl]-5-(morpholin-4-yl)thiophene-2-carboxylic acid], for which the “p110 alpha Percent Inhibition” value at Human PI3K alpha was 80%. For the same compound, the “p110 beta Percent Inhibition” value on Human PI3K beta was found to be 116%. Besides, on Human PI3K delta, the “p110 delta Percent Inhibition” value is 104%. Further, at Human PI3K gamma, the “p110 gamma Percent Inhibition” value came out at 44%.

As to `CC(=O)Nc1cc(-c2cc(C(c3ccc(Cl)cc3)N3CCC[C@@H]3CO)c(-c3nnc[nH]3)s2)ccn1` (single isomer, unassigned) [Compound 283], the “p110 alpha Percent Inhibition” value at Human PI3K alpha was found to be 96%. At Human PI3K beta, the “p110 beta Percent Inhibition” value was 98%. Moreover, at Human PI3K delta, the “p110 delta Percent Inhibition” value stood at 99%. Further, the “p110 gamma Percent Inhibition” value at Human PI3K gamma amounted to 18%.

For `N#Cc1c(N2CCOCC2)sc(C(=O)O)c1Cc1ccc2sccc2c1` [Compound 311], the inhibition at 1.1 µM came out at 55% at Human PI3K alpha and 104% on Human PI3K beta. Also, the inhibition at 1 µM at Human PI3K delta stood at 105%; at Human PI3K gamma it was 64%.

As to `N#Cc1c(N2CCOCC2)sc(-c2nnn[nH]2)c1C(F)(F)c1ccc2ccccc2c1` [Compound 349], the inhibition at 1 µM on Human PI3K delta is 96%.

In the case of `N#Cc1c(N2CCOCC2)sc(C(=O)O)c1Cc1ccc2c(c1)CCCC2` [Compound 305], the inhibition at 1 µM on Human PI3K delta worked out at 74%.

`N#Cc1c(N2CCOCC2)sc(C(=O)O)c1C(F)(F)c1ccc2ccccc2c1` [Compound 308]: the inhibition at 1 µM on Human PI3K delta was found to be 92%.

Regarding `N#Cc1c(N2CCOCC2)sc(C(=O)O)c1Cc1cc2ccccc2cc1F` [Compound 295], the inhibition at 1 µM at Human PI3K delta worked out at 112%.

Take `N#Cc1c(N2CCOCC2)sc(C(=O)O)c1Cc1cc(F)c(Cl)cc1F` [Compound 300]: the inhibition at 1 µM on Human PI3K delta turned out to be 97%.

For the compound `N#Cc1c(N2CCOCC2)sc(C(N)=O)c1C(F)(F)c1ccc2ccccc2c1` [Compound 307], the inhibition at 1 µM on Human PI3K delta came out at 62%.

Take `COC(c1ccc2ccccc2c1)c1c(C(=O)O)sc(N2CCOCC2)c1C#N` (centres unmarked) [Compound 337]: on Human PI3K delta, the “p110 delta Percent Inhibition” value was found to be 46%.

Turning to `N#Cc1c(N2CCOCC2)sc(C(=O)O)c1C(F)c1ccc2ccccc2c1` (centres unmarked) [Compound 345], the “p110 alpha Percent Inhibition” value at Human PI3K alpha was 64%. Besides, at Human PI3K delta, the inhibition at 1 µM was determined as 83%.

As to `N#Cc1c(N2CCOCC2)sc(C(=O)O)c1Cc1ccc2ccc(F)cc2c1` [Compound 287], the inhibition at 1 µM on Human PI3K delta amounted to 112%.

A word on the IC50: it is the concentration at which inhibition is half-maximal. Consider `O=c1ccnc(-c2sc(-c3ccncc3)nc2Cc2ccc(Cl)cc2)[nH]1` [Compound 92, 2-(4-(4-chlorobenzyl)-2-(pyridin-4-yl)thiazol-5-yl)pyrimidin-4(3H)-one], for which the IC50 is greater than 1 µM at Human PI3K alpha and less than 0.1 µM at Human PI3K beta.

With `Clc1ccc(Cc2nc(-c3ccncc3)sc2-c2ccc[nH]2)cc1` [Compound 22, 4-(4-chlorobenzyl)-2-(pyridin-4-yl)-5-(1H-pyrrol-2-yl)thiazole], the IC50 at Human PI3K alpha and on Human PI3K beta was greater than 1 µM each time.

Consider `N#Cc1c(-c2ccnnc2)sc(-c2nnc[nH]2)c1Cc1ccc(Cl)cc1` [Compound 89], for which the IC50 at Human PI3K alpha is greater than 1 µM; at Human PI3K beta it was 0.1 to 1 µM.

Take `Cc1nn2ccccc2c1-c1nc(Cc2ccc(Cl)cc2)c(-c2nnc[nH]2)s1` [Compound 4, 3-[4-(4-chlorobenzyl)-5-(4H-1,2,4-triazol-3-yl)-1,3-thiazol-2-yl]-2-methylpyrazolo[1,5-a]pyridine]: the concentration for half-maximal inhibition (IC50) at Human PI3K alpha and on Human PI3K beta was 0.1 to 1 µM each time.

With `N#Cc1c(N2CCOCC2)sc(C(=O)O)c1Cc1cc(F)c2ccccc2c1` [Compound 324], on Human PI3K delta, the inhibition at 1 µM stood at 113%.

With `Cc1nn2ccc(CN3CCNCC3)cc2c1-c1nc(Cc2ccc(Cl)cc2)c(-c2nnc[nH]2)s1` [Compound 72, 3-[4-(4-chlorobenzyl)-5-(4H-1,2,4-triazol-3-yl)-1,3-thiazol-2-yl]-2-methyl-5-(piperazin-1-ylmethyl)pyrazolo[1,5-a]pyridine], the IC50 on Human PI3K alpha and at Human PI3K beta was 0.1 to 1 µM throughout.

Take `CN1CCc2cc(Cl)ccc2C1c1cc(-c2ccncc2)sc1-c1ccn[nH]1` (centres unmarked) [Compound 58, 6-Chloro-2-methyl-1-[2-(1H-pyrazol-5-yl)-5-pyridin-4-yl-3-thienyl]-1,2,3,4-tetrahydroisoquinoline]: the figures for the IC50 on Human PI3K alpha and at Human PI3K beta were greater than 1 µM and 0.1 to 1 µM, respectively.

In the case of `N#Cc1c(N2CCOCC2)sc(C(=O)O)c1Cc1ccc2c(F)cccc2c1` [Compound 343], the inhibition at 1 µM at Human PI3K delta is 113%.

For `N#Cc1c(N2CCOCC2)sc(C(=O)O)c1Cc1ccc2ccccc2c1F` [Compound 293], the inhibition at 1 µM on Human PI3K delta came out at 110%.
